In paper PMC12055641, “The Study of Antistaphylococcal Potential of Omiganan and Retro-Omiganan Under Flow Conditions” (Probiotics and Antimicrobial Proteins, 2024):
No end group written: not given here.

What was measured:
[1] = tested on: cells; parameters: method as in PMID 11294848; conditions: low concentrations; cited from earlier work
[2] = tested on: S. aureus ATCC 33591 (MRSA) biofilm; conditions: ATCC 33591, 24 h
From the text: (§1) Clinical S. aureus strains were collected from patients with atopic dermatitis during their visits to the Outpatient Clinic and hospitalization in the Department of Dermatology, Venereology and Allergology at Medical University of Gdańsk (following the approval from the ethics committee, Approval Number NKBBN/242–477/2014). Reference strains of S. aureus ATCC 25923, S. aureus ATCC 33591, S. aureus ATCC 9144, and S. aureus ATCC 12598 were obtained from the American Type Culture Collection. All the strains were stored at − 80 °C in Roti®-Store cryo vials (Carl Roth GmbH, Karlsruhe, Germany) and before the tests were transferred into fresh Mueller–Hinton Medium (BioMaxima, Lublin, Poland) and incubated for 24 h at 37 °C. Subsequently, each bacterial inoculum was seeded on Mueller–Hinton agar plates (BioMaxima) and incubated again for 24 h. The cultures prepared in this way were used in further antimicrobial assays. Minimum inhibitory concentrations (MICs) were determined according to the Clinical and Laboratory Standards Institute recommendations. […] The experiments were conducted on 96-well microtiter plates, with a final volume of 100 μL. Additionally, in the case of daptomycin, the medium was supplemented with Ca^2+ (50 mg/L). Cell densities were adjusted spectrophotometrically (Multiskan™ GO Microplate Spectrophotometer, Thermo Scientific) at 600 nm. The MICs were taken as the lowest drug concentration at which a visible growth of the microorganisms was inhibited. Minimum biofilm eliminating concentrations (MBECs) were determined on 96-well flat-bottomed microtiter polystyrene plates with resazurin (7-hydroxy-3H-phenoxazin-3-one 10-oxide sodium salt) as a cell viability reagent. To do this, the plates were filled with 100 μL of the initial inoculums of bacteria (0.5 × 10^7 CFU/mL) in the Mueller–Hinton broth and incubated for 24 h at 37 °C. […] After 24 h of incubation, 20 μL of resazurin (4 mg/mL) was added to each well and the MBEC values were read. Minimum biofilm inhibitory concentrations (MBICs) were also determined on 96-well flat-bottomed microtiter polystyrene plates as described previously. To do this, 50 μL of the compounds in the concentration range, diluted MHB, were prepared. Subsequently, the 50 μL of the staphylococcal inoculums were added to reach the same density of bacteria as that in the MBEC assay. After 24 h of incubation at 37 °C, the wells were rinsed three times with PBS and the fresh medium (100 μL) with resazurin (0.6 mg/mL) was added. Then, after 1 h of incubation, MBICs were read. […] All experiments were conducted in triplicate.

[3] = tested on: S. aureus clinical strain 051N (MRSA) biofilm; conditions: clinical strain 051N biofilm, 24 h
From the text: as §1

[4] = tested on: biofilm of reference and clinical strains of staphylococci (S. aureus); conditions: for mean MBIC (initial values): average over 14 strains, polystyrene 96-well plates, not corrected
From the text: as §1

[5] = tested on: S. aureus clinical strain 043SC (MRSA); conditions: 24 h
From the text: as §1

[6] = tested on: S. aureus clinical strain 043SC (MRSA) biofilm; conditions: clinical strain 043SC biofilm, 24 h
From the text: as §1

[7] = tested on: S. aureus clinical strain 004N (MRSA); conditions: 24 h
From the text: as §1

[8] = tested on: S. aureus clinical strain 015N (MRSA) biofilm; conditions: clinical strain 015N biofilm, 24 h
From the text: as §1

[9] = tested on: S. aureus clinical strain 004N (MRSA) biofilm; conditions: clinical strain 004N biofilm, 24 h
From the text: as §1

[10] = tested on: S. aureus clinical strain 015N (MRSA); conditions: 24 h
From the text: as §1

[11] = tested on: S. aureus ATCC 33591 (MRSA); conditions: ATCC 33591, 24 h
From the text: as §1

[12] = tested on: S. aureus clinical strain 051N (MRSA); conditions: 24 h
From the text: as §1

[13] = tested on: reference and clinical strains of staphylococci (S. aureus); conditions: 24 h
From the text: as §1

[14] = tested on: human keratinocytes (HaCaT); assay type: cell-based; conditions: 24 h
Experimental: To evaluate the cytotoxicity of the peptides (IC50), the classic MTT assay on 96-well plates was performed for human keratinocytes (HaCaT) which were acquired from the ATCC. The assay utilizes colorimetric determination of the cell metabolic activity, and the color intensity reflects the number of live cells that can be measured spectrophotometrically. […] DMSO was added to the control cells at a final concentration of 1.0% (v/v), which was related to the maximum concentration of the solvent compounds used in the experiment. After 24 h of incubation at 37 °C (humidified 5% CO2 incubator) with the peptides, a medium containing 1 mg/mL of MTT was added to the wells up to a final concentration of 0.5 mg/mL. Subsequently, the plates were incubated at 37 °C for 4 h. Then, the medium was aspirated, and the formazan product was solubilized with DMSO. The background absorbance at 630 nm was subtracted from that at 570 nm for each well (Epoch, BioTek Instruments, USA). Six replicates were conducted for each concentration. All experiments were repeated at least twice and the resulting IC50 values were calculated with GraFit 7 software (v. 7.0, Erithacus, Berkley, CA, USA).

[15] = Hemolysis assay; assay type: cell-based; conditions: human, human red blood cells (RBCs), 64 μg/mL (lowest concentration causing hemolysis > 10%); read-out: degree of hemolysis
Experimental: The hemolysis assay was conducted using a procedure described previously. […] The control wells for 0% hemolysis and 100% hemolysis consisted of RBCs suspended in PBS and 1% of Triton X-100, respectively. […] After centrifugation, the supernatant was carefully […] to new microtiter plates and the release of hemoglobin was monitored by absorbance readings at 540 nm (MultiskanTM GO Microplate Spectrophotometer, Thermo Scientific). All experiments were conducted in triplicate. Blood collection was approved by Medical University of Gdańsk ethics committee (Consent Number: NKBBN/264/2019).

[16] = tested on: S. aureus ATCC 6538; conditions: ATCC 6538, reference strain
[17] = tested on: S. aureus clinical strain 009S biofilm
From the text: as §1

[18] = tested on: S. aureus clinical strain 031S biofilm
From the text: as §1

[19] = tested on: S. aureus clinical strain 030N biofilm
From the text: as §1

[20] = tested on: S. aureus ATCC 25923 biofilm; conditions: ATCC 25923, reference strain
From the text: as §1

[21] = tested on: S. aureus ATCC 9144; conditions: ATCC 9144, reference strain
From the text: as §1

[22] = tested on: S. aureus clinical strain 005S biofilm
From the text: as §1

[23] = tested on: S. aureus ATCC 9144 biofilm; conditions: ATCC 9144, reference strain
From the text: as §1

[24] = tested on: S. aureus ATCC 12598 biofilm; conditions: ATCC 12598, reference strain
From the text: as §1

[25] = tested on: S. aureus clinical strain 060S
From the text: as §1

[26] = tested on: S. aureus clinical strain 060S biofilm
From the text: as §1

[27] = tested on: S. aureus clinical strain 009S
From the text: as §1

[28] = tested on: S. aureus clinical strain 030N
From the text: as §1

[29] = tested on: S. aureus clinical strain 031S
From the text: as §1

[30] = tested on: S. aureus ATCC 25923; conditions: ATCC 25923, reference strain
From the text: as §1

[31] = tested on: S. aureus clinical strain 005S
From the text: as §1

[32] = tested on: S. aureus ATCC 12598; conditions: ATCC 12598, reference strain
From the text: as §1

[33] = tested on: S. aureus ATCC 6538 biofilm; conditions: ATCC 6538, reference strain
[34] = tested on: S. aureus ATCC 6538 biofilm; conditions: ATCC 6538, reference strain; remark: listed apart in the source

For “indolicidin: antimicrobial peptide derived from bovine neutrophil granules (ILPWKWPWWPWRR; ends and bridges not checked; UniProt P33046 131-143, looked up)”, the “cells with membrane depolarization” value [1] is listed as “up to 75%”.
KRRWPWWPWRLI-NH2 [Retro-omiganan Cl^−] gave an MBEC [2] of 32 µg/mL, an MBIC [2] of 32 µg/mL and an MBEC [3] of 64 µg/mL. For the same substance, the MBIC [3] was 16 µg/mL, the “mean MBEC (initial values)” value ([4]; 24 h) was 36.57 µg/mL and the MIC [5] was 8 µg/mL. For the same substance, the MBEC [6] was 32 µg/mL, the MBIC [6] was 16 µg/mL and the MIC [7] was 16 µg/mL. The MBEC [8] was 32 µg/mL, the MBIC [8] was 16 µg/mL and the MBEC [9] was 64 µg/mL. For the same substance, the MBIC [9] was 16 µg/mL, the MIC [10] was 8 µg/mL and the MIC [11] was 16 µg/mL. The MIC [12] was 16 µg/mL, the “mean MIC (initial values)” value [13] was 8.93 µg/mL and the IC50 [14] was 26.66 µg/mL. It also gave a hemolysis at 60 min, 64 μg/mL [15] of 16%.
ILRWPWWPWRRK-NH2 [Omiganan TFA^−] gave an MIC [16] of 4 µg/mL, an MBEC [17] of 32 µg/mL and an MBIC [17] of 1 µg/mL. The MBEC [18] was 16 µg/mL, the MBEC [19] was 32 µg/mL and the MBIC [19] was 16 µg/mL. For the same substance, the MBEC [2] was 32 µg/mL, the MBIC [2] was 32 µg/mL and the MBEC [20] was 128 µg/mL. It also gave an MBIC [20] of 32 µg/mL, an MIC [21] of 4 µg/mL and an MBEC [3] of 64 µg/mL. The MBIC [3] was 32 µg/mL, the “mean MBEC (corrected values)” value ([4]; 24 h) was 42.29 µg/mL and the “mean MBEC (initial values)” value ([4]; 24 h) was 42.29 µg/mL. For the same substance, the “mean MBIC (initial values)” value [4] was 17.54 µg/mL, the “mean MBIC (corrected values)” value ([4]; biofilm of reference and clinical strains of staphylococci, 24 h) was 17.54 µg/mL and the MBEC [22] was 16 µg/mL. It also gave an MBIC [22] of 2 µg/mL, an MIC [5] of 8 µg/mL and an MBEC [6] of 32 µg/mL. It also gave an MBIC [6] of 16 µg/mL, an MBEC [23] of 32 µg/mL and an MBIC [23] of 16 µg/mL. For the same substance, the MIC [7] was 8 µg/mL, the MBEC [8] was 64 µg/mL and the MBIC [8] was 16 µg/mL. The MBEC [24] was 32 µg/mL, the MBIC [24] was 32 µg/mL and the MBEC [9] was 64 µg/mL. It also gave an MBIC [9] of 16 µg/mL, an MIC [25] of 2 µg/mL and an MBEC [26] of 16 µg/mL. The MBIC [26] was 2 µg/mL, the MIC [10] was 16 µg/mL and the MIC [11] was 16 µg/mL. The MIC [27] was 0.5 µg/mL, the MIC [28] was 8 µg/mL and the MIC [29] was 1 µg/mL. It also gave an MIC [30] of 16 µg/mL, an MIC [31] of 1 µg/mL and an MIC [12] of 16 µg/mL. The “mean MIC (corrected values)” value [13] was 7.75 µg/mL, the “mean MIC (initial values)” value [13] was 7.75 µg/mL and the MIC [32] was 8 µg/mL. For the same substance, the MBEC [33] was 32 µg/mL, the IC50 [14] was 77.10 µg/mL and the MBIC [34] was 32 µg/mL.
For KRRWPWWPWRLI-NH2 [Retro-omiganan TFA^−], the MIC [16] was 8 µg/mL, the MBEC [17] was 16 µg/mL and the MBIC [17] was 2 µg/mL. For the same substance, the MBEC [18] was 16 µg/mL, the MBEC [19] was 32 µg/mL and the MBIC [19] was 8 µg/mL. The MBEC [2] was 64 µg/mL, the MBIC [2] was 16 µg/mL and the MBEC [20] was 128 µg/mL. The MBIC [20] was 16 µg/mL, the MIC [21] was 8 µg/mL and the MBEC [3] was 32 µg/mL. The MBIC [3] was 32 µg/mL, the “mean MBEC (initial values)” value ([4]; 24 h) was 40.00 µg/mL and the “mean MBIC (initial values)” value [4] was 11.82 µg/mL. It also gave an MBEC [22] of 16 µg/mL, an MBIC [22] of 2 µg/mL and an MIC [5] of 8 µg/mL. It also gave an MBEC [6] of 16 µg/mL, an MBIC [6] of 8 µg/mL and an MBEC [23] of 32 µg/mL. It also gave an MBIC [23] of 16 µg/mL, an MIC [7] of 8 µg/mL and an MBEC [8] of 32 µg/mL. For the same substance, the MBIC [8] was 16 µg/mL, the MBEC [24] was 32 µg/mL and the MBIC [24] was 16 µg/mL. For the same substance, the MBEC [9] was 64 µg/mL, the MBIC [9] was 16 µg/mL and the MIC [25] was 1 µg/mL. The MBEC [26] was 16 µg/mL, the MBIC [26] was 1 µg/mL and the MIC [10] was 8 µg/mL. For the same substance, the MIC [11] was 16 µg/mL, the MIC [27] was 1 µg/mL and the MIC [28] was 16 µg/mL. For the same substance, the MIC [29] was 2 µg/mL, the MIC [30] was 8 µg/mL and the MIC [31] was 0.5 µg/mL. The MIC [12] was 8 µg/mL, the “mean MIC (initial values)” value [13] was 7.18 µg/mL and the MIC [32] was 8 µg/mL. For the same substance, the MBEC [33] was 64 µg/mL, the IC50 [14] was 29.51 µg/mL and the MBIC [34] was 16 µg/mL.
